Experimental data reported in ChEMBL document CHEMBL4610128, “Structural and Mechanistic Basis of the Inhibitory Potency of Selected 2-Aminothiazole Compounds on Protein Kinase CK2” (J Med Chem, 2020).

Legend:
[1] = target: Casein kinase II alpha/beta (Homo sapiens, UniProt P68400); experiment: ATP competitive inhibition of recombinant human CK2alpha2 (1 to 335 residues)/CK2beta2 (1 to 193 residues) expressed in Escherichia coli BL21(DE3) using RRRDDDSDDD as substrate preincubated for 10 mins followed by substrate addition and measured after 5 mins in presence of varying level of [gamma-32P]ATP by Dixon-plot analysis
[2] = target: Casein kinase II alpha'/ beta (Homo sapiens) (UniProt P67870+P19784); experiment: Ratio of Ki for ATP uncompetitive inhibition to Ki for ATP competitive inhibition of recombinant human CK2alpha2 (1 to 335 residues)/CK2beta2 (1 to 193 residues) expressed in Escherichia coli BL21(DE3)

SMILES | Ki [1] | Ratio Ki [2]
O=C(O)c1cccc(Nc2nc(-c3ccccn3)cs2)c1 | 1470 nM | 36.5
O=C(O)c1ccc(Nc2nc(-c3ccc(Cl)cc3)cs2)cc1O | 206 nM | 16.3
